Data published in US9700637B2, “Reaction-based fluorescent probes for detecting zinc” (Massachusetts Institute of Technology, priority 2013, dated 2017).

Tests used:
[1] = tested on: RWPE-1 cells; assay: Mitochondrial zinc uptake imaging in prostate cells; assay type: cell-based; details: RWPE-1, 50 μM ZnCl2 KSFM, 24 h
Protocol: (§1) FIG. 25 depicts decreased mitochondrial zinc uptake in cancerous cell lines. RWPE-1, RWPE-2, and PC-3 prostate cell lines were incubated for 24 h in medium supplemented with (+) and without (−) 50 μM ZnCl2. RWPE-1 is the only cell line that has a statistically significant (p<0.001) increase in mitochondrial zinc uptake when incubated in zinc-enriched media.
(§2) With a new mitochondrial-targeting sensor in hand, we used DA-ZP1-TPP to investigate the ability of prostate cell lines to accumulate zinc within their mitochondria. RWPE-1 and RWPE-2 are a pair of genetically similar cell lines that retain normal epithelial cell morphology, express cytokeratin markers for prostate epithelial cells, and are hormone sensitive. […] To explore the ability of RWPE-1 and -2 cells to sequester zinc in mitochondria, we measured the fluorescence intensity of DA-ZP1-TPP in both lines after the cells were bathed in normal or zinc-enriched (50 μM ZnCl2) keratinocyte serum-free medium (KSFM) for 24 h prior to imaging. RWPE-1 cells bathed in zinc-enriched medium have a fluorescence signal intensity that is ˜2.3-fold higher than cells bathed in normal medium (FIG. 25). […] Importantly, in both cell lines the observed fluorescence signals from DA-ZP1-TPP are sensitive to ZnPT and TPEN and have good correlation with MitoTracker Red, the Pearson's r values being 0.68±0.09 and 0.59±0.1 for RWPE-1 and -2, respectively. […]

[2] = tested on: RWPE-2 cells; assay: as above; assay type: cell-based; details: RWPE-2, 50 μM ZnCl2 KSFM, 24 h
Protocol: as §1, §2

[3] = pH profile of fluorescence; assay type: physicochemical
Protocol: FIG. 21 depicts normalized fluorescence signals for DA-ZP1-TPP as a function of increasing pH in the presence of 125 μM ZnCl2 or 250 μM EDTA. Data were acquired 17.5 mM (0.1% v/v) acetic acid in milli-Q H2O beginning at pH 3.5. The pH of the solution was increased by sequential addition of aqueous KOH. The total volume of KOH added was less than 5% of the total volume. λex=475 nm.
FIG. 26 depicts in vitro characterization of DA-ZP1-A3. (a) UV-vis and (b) fluorescence spectra of a 5 μM solution of DA-ZP1-A3 in buffer (50 mM PIPES, 100 mM KCl; pH 7). Spectra were acquired initially, upon addition of 100 μM ZnCl2, and again after addition of 200 μM EDTA. (c) Time-dependent change in the normalized absorbance of a ca. 5 μM solution DA-ZP1-A3 at 37° C. in buffer (50 mM PIPES, 100 mM KCl; pH 7) in the presence of 100 μM ZnCl2 (λabs=510 nm) or EDTA (λabs=520 nm). (d) Integrated fluorescence intensity of a 1 μM solution of ZP1-A3 (circles) or DA-ZP1-A3 (squares) as a function of pH.
Next, we investigated the pH profile of DA-ZP1-TPP. The use of nitrogen atoms to coordinate zinc endows Zinpyr sensors with selectivity for zinc over calcium and magnesium, but also renders them pH sensitive. […] Protonation of these amines leads to increased background fluorescence because protons can diminish PeT in a manner similar to that of zinc ions. […]

## CC(=O)Oc1c(Cl)cc2c(c1CN(Cc1ccccn1)Cc1ccccn1)Oc1c(cc(Cl)c(OC(C)=O)c1CN(Cc1ccccn1)Cc1ccccn1)C21OC(=O)c2ccc(C(=O)NCC[P+](c3ccccc3)(c3ccccc3)c3ccccc3)cc21 [DA-ZP1-TPP]
[1]
  fluorescence signal intensity, zinc-enriched vs normal medium: ~2.3 fold
[2]
  increase in fluorescence signal, zinc-enriched vs normal medium: no statistically significant increase
[3]; absence of zinc
  fluorescence turn-on under acidic conditions: no significant fluorescence turn-on under acidic conditions
[3]; presence of excess zinc ions (125 μM ZnCl2)
  pH at which a strong zinc-dependent fluorescence response is displayed: > 5
